Assay results published in US10028961B2, “Therapeutically active compounds and their methods of use” (AGIOS PHARMACEUTICALS, INC., priority 2013, dated 2018).
pIC50: −log10 of the molar value.

Tests used:
IDH2 R140Q = IDH2 R140Q (Homo sapiens (Human), UniProt P48735, R140Q); assay: In vitro assay for IDH2m R140Q inhibitors, cofactor depletion assay; format: biochemical; conditions: IDH2 R140Q enzyme
In short: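 Remaining cofactor measured fluorimetrically: diaphorase/resazurin Stop Mix […], halting the reaction. Before that, mutant enzyme and compound sat 1 h at RT, then substrate mix (4 μM NADPH, 1.6 mM α-KG) was added for 16 h at RT.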

[1] = biological target: IDH1-R132H homodimer enzyme (Homo sapiens (Human), UniProt O75874, R132H); assay: In vitro assay IDH1-R132H homodimer, NADPH depletion assay with NADPH/NADP preincubation; format: biochemical; conditions: 5 μM NADPH and 37.5 μM NADP
In short: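 Conversion of alpha-ketoglutarate to 2-hydroxyglutarate tracked by NADPH depletion. Reaction started with 5 mM alpha-ketoglutarate plus NADPH substrate mix (50 μl total), 60 min at room temperature. Leftover NADPH quantified via diaphorase/resazurin fluorescence.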

HT1080 cells = assay: Cellular assay for IDH1m R132C inhibitors, 2-HG by LC-MS in HT1080 cells; format: cell-based; conditions: Homo sapiens, HT-1080
Description: The following describes the experimental procedures that can be used to obtain data on column 5 of Table 4.
Cells (HT1080 or U87MG) are grown in T125 flasks in DMEM containing 10% FBS, 1× penicillin/streptomycin and 500 ug/mL G418 (present in U87MG cells only). They are harvested by trypsin and seeded into 96 well white bottom plates at a density of 5000 cell/well in 100 ul/well in DMEM with 10% FBS. No cells are placed in columns 1 and 12. Cells are incubated overnight at 37° C. in 5% CO2. The next day test compounds are made up at 2× the final concentration and 100 ul are added to each cell well. The final concentration of DMSO is 0.2% and the DMSO control wells are plated in row G. The plates are then placed in the incubator for 48 hours. At 48 hours, 100 ul of media is removed from each well and analyzed by LC-MS for 2-HG concentrations. The cell plate is placed back in the incubator for another 24 hours. At 72 hours post compound addition, 10 mL/plate of Promega Cell Titer Glo reagent is thawed and mixed. The cell plate is removed from the incubator and allowed to equilibrate to room temperature. Then 100 ul of Promega Cell Titer Glo reagent is added to each well of media. The cell plate is then placed on an orbital shaker for 10 minutes and then allowed to sit at room temperature for 20 minutes. The plate is then read for luminescence with an integration time of 500 ms.
HT1080 cells are maintained in RPMI containing 10% FBS, 1× penicillin/streptomycin. […] The next day compounds are prepared in 100% DMSO and then diluted in media for a final concentration of 0.2% DMSO. Media is removed from the cell plates and 200 μL of the compound dilutions are added to each well. […] The cell plates are then allowed to incubate another 24 hours.

[2] = tested on: Neurosphere cells (TS603); assay: Cellular assay for IDH1m R132H inhibitors, 2-HG by LC-MS in neurosphere cells (TS603); format: cell-based; conditions: 2-HG in media at 48 hours
In short: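 TS603 neurosphere cells in NeuroCult medium were dosed with compound (0.25% DMSO final) at 37 C, 5% CO2. After 48 hours, medium 2-HG was measured by LC-MS. At 72 hours, viability was read by CellTiter-Glo luminescence.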

[3] = biological target: IDH1 wt/IDH1 R132H heterodimer (Homo sapiens (Human), UniProt O75874, R132H); assay: In vitro assay for IDH1m R132H inhibitors, IDH1 wt/IDH1 R132H heterodimer, NADPH depletion (diaphorase/resazurin); format: biochemical; conditions: IDH1 wt/R132H heterodimer, NADPH/NADP, not saturated; read-out: IDH1 wt/R132H NADPH/NADP IC50 not saturated
In short: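 Purified IDH1wt-his/IDH1R132H-flag heterodimer (sf9 co-expression) pre-incubated 1 hr at room temperature with compound and NADPH before α-KG addition. Remaining NADPH read by diaphorase/resazurin conversion to fluorescent resorufin, 5 min at 25° C. Compounds diluted 1:50 from DMSO; IC50 determined.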

[4] = tested on: U87MG pLVX-IDH2 R140Q-neo cells; assay: U87MG pLVX-IDH2 R140Q-neo cell based assay, 2-HG by LC-MS; conditions: Homo sapiens, U-87 MG

Chain of IDH2 R140Q (P48735 40-452 R140Q): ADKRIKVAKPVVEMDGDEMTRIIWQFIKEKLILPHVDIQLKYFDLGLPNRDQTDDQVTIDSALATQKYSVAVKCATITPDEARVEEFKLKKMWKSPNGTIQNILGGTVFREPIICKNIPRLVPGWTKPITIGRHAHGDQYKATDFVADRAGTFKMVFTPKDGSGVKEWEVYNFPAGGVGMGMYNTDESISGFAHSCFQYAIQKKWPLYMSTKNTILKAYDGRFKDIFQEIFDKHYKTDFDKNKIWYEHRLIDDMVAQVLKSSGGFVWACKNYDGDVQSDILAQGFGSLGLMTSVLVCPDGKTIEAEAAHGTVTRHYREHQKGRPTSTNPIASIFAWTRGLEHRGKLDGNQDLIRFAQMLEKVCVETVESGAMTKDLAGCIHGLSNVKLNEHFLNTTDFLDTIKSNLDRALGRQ
Chain of IDH1-R132H homodimer enzyme (O75874 whole entry R132H): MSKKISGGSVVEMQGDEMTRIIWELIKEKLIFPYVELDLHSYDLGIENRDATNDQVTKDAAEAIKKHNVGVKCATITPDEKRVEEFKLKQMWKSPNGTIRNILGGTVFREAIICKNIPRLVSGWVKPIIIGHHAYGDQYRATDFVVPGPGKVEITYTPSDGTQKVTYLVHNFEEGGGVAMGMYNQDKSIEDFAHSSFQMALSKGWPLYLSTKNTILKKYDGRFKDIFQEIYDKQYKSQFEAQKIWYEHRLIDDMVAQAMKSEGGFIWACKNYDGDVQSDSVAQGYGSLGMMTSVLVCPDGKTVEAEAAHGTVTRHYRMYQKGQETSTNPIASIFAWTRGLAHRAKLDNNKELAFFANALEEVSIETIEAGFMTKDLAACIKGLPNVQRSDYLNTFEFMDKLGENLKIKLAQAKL
Chain of IDH1 wt/IDH1 R132H heterodimer (O75874 whole entry R132H): as above
Chain of IDH1 wt/IDH1 R132H heterodimer (O75874 whole entry, stated change not applied): as the sequence (O75874 whole entry R132H) above, with H132R counted along it

| Compound | pIC50 (IDH2 R140Q) | pIC50 [1] | pIC50 (HT1080 cells) | pIC50 [2] | pIC50 [3] | pIC50 [4] |
| --- | --- | --- | --- | --- | --- | --- |
| FC1(F)CCC(Nc2nc(NC3CCC(F)(F)C3)nc(-c3ccnc(C(F)(F)F)n3)n2)C1 (stereo not drawn) [Compound 194] | 7.00 to 7.30 | 6.00 to 7.00 | 7.00 to 7.30 | > 7.30 | > 7.30 | 7.00 to 7.30 |
| FC1(F)CC(Nc2nc(NC3CC(F)(F)C3)nc(-c3cncc(Cl)n3)n2)C1 [Compound 144] | > 7.30 | > 7.30 | > 7.30 | > 7.30 | > 7.30 | > 7.30 |
| CC(Nc1nc(Nc2ccnc(C(F)(F)F)c2)nc(-c2cccc(C(F)(F)F)n2)n1)C(F)(F)F (stereo not drawn) [Compound 171] | > 7.30 | 7.00 to 7.30 | 6.00 to 7.00 | > 7.30 | > 7.30 | > 7.30 |
| N#Cc1cc(F)cc(Nc2nc(NC3CC(F)(F)C3)nc(-c3cccc(C(F)(F)F)n3)n2)c1 [Compound 154] | > 7.30 | > 7.30 | 6.00 to 7.00 | > 7.30 | > 7.30 | > 7.30 |
| N#Cc1cc(Nc2nc(NC3CCC(F)(F)C3)nc(-n3ccc(C(F)(F)F)n3)n2)ccn1 (stereo not drawn) [Compound 179] | > 7.30 | > 7.30 | 6.00 to 7.00 | > 7.30 | > 7.30 | > 7.30 |
| CC(F)(F)c1nc(-c2nc(NC3CCC(F)(F)C3)nc(NC3CCC(F)(F)C3)n2)cs1 (stereo not drawn) [Compound 155] | > 7.30 | > 7.30 | 7.00 to 7.30 | > 7.30 | > 7.30 | > 7.30 |
| N#Cc1cc(F)cc(Nc2nc(NC3CCC(F)(F)C3)nc(-n3ccc(C(F)(F)F)n3)n2)c1 (stereo not drawn) [Compound 112] | > 7.30 | > 7.30 | 6.00 to 7.00 | > 7.30 | > 7.30 | > 7.30 |
| Nc1ccc(F)c(-c2nc(Nc3cc(F)cc(F)c3)nc(NC3CCC(F)(F)CC3)n2)n1 [Compound 165] | > 7.30 | 7.00 to 7.30 | 6.00 to 7.00 | > 7.30 | > 7.30 | > 7.30 |
| CC(Nc1nc(NC(C)C(F)(F)F)nc(-n2ccc(C(F)(F)F)n2)n1)C(F)(F)F (stereo not drawn) [Compound 141] | > 7.30 | > 7.30 | > 7.30 | > 7.30 | > 7.30 | > 7.30 |
| CC(Nc1nc(NC(C)C(F)(F)F)nc(-c2cncc(Cl)n2)n1)C(F)(F)F (stereo not drawn) [Compound 156] | > 7.30 | > 7.30 | > 7.30 | > 7.30 | > 7.30 | > 7.30 |
| N#Cc1cc(F)cc(Nc2nc(NC3CC(F)(F)C3)nc(-n3ccc(C(F)(F)F)n3)n2)c1 [Compound 140] | > 7.30 | > 7.30 | 6.00 to 7.00 | > 7.30 | > 7.30 | > 7.30 |
| FC1(F)CC[C@@H](Nc2nc(N[C@@H]3CCC(F)(F)C3)nc(-c3cccc(C(F)(F)F)n3)n2)C1 [Compound 111] | > 7.30 | > 7.30 | > 7.30 | > 7.30 | > 7.30 | > 7.30 |
| CC[C@H](Nc1nc(N[C@@H](CC)C(F)(F)F)nc(-c2cccc(Cl)n2)n1)C(F)(F)F [Compound 180] | 7.00 to 7.30 | > 7.30 | > 7.30 | > 7.30 | > 7.30 | 6.00 to 7.00 |
| FC1(F)CC[C@H](Nc2nc(N[C@H]3CCC(F)(F)C3)nc(-c3cccc(C(F)(F)F)n3)n2)C1 [Compound 118] | > 7.30 | > 7.30 | > 7.30 | > 7.30 | > 7.30 | > 7.30 |
| N#Cc1cc(F)cc(Nc2nc(NC3CCC(F)(F)C3)nc(-c3nc(C(F)(F)F)cs3)n2)c1 (stereo not drawn) [Compound 132] | > 7.30 | > 7.30 | 6.00 to 7.00 | > 7.30 | > 7.30 | > 7.30 |
| FC(F)c1cncc(-c2nc(NC3CCC(F)(F)CC3)nc(NC3CCC(F)(F)CC3)n2)n1 [Compound 186] | > 7.30 | 6.00 to 7.00 | 6.00 to 7.00 | > 7.30 | > 7.30 | > 7.30 |
| CC(F)(F)c1cc(Nc2nc(NC3CCC(F)(F)C3)nc(-c3cccc(C(F)(F)F)n3)n2)ccn1 (stereo not drawn) [Compound 163] | > 7.30 | 7.00 to 7.30 | 6.00 to 7.00 | > 7.30 | > 7.30 | > 7.30 |
| CC(Nc1nc(Nc2cc(F)cc(C#N)c2)nc(-n2ccc(C(F)(F)F)n2)n1)C(F)(F)F (stereo not drawn) [Compound 119] | > 7.30 | > 7.30 | 7.00 to 7.30 | > 7.30 | > 7.30 | > 7.30 |

Second part, the compound after the results:

| pIC50 (IDH2 R140Q) | pIC50 [1] | pIC50 (HT1080 cells) | pIC50 [2] | pIC50 [3] | pIC50 [4] | Compound |
| --- | --- | --- | --- | --- | --- | --- |
| > 7.30 | 6.00 to 7.00 | 6.00 to 7.00 | > 7.30 | 7.00 to 7.30 | 6.00 to 7.00 | FC1(F)CC(Nc2nc(NC3CC(F)(F)C3)nc(-c3ccnc(C(F)(F)F)n3)n2)C1 [Compound 251] |
| > 7.30 | 6.00 to 7.00 | 6.00 to 7.00 | > 7.30 | > 7.30 | > 7.30 | FC1(F)CCC(Nc2nc(Nc3ccnc(-c4ccccc4)c3)nc(-c3cccc(C(F)(F)F)n3)n2)C1 (stereo not drawn) [Compound 202] |
| > 7.30 | 6.00 to 7.00 | 7.00 to 7.30 | > 7.30 | > 7.30 | > 7.30 | FC1(F)CCC(Nc2nc(NC3CCC(F)(F)CC3)nc(-c3cccc(Cl)n3)n2)CC1 [Compound 212] |
| > 7.30 | 7.00 to 7.30 | 6.00 to 7.00 | > 7.30 | > 7.30 | > 7.30 | CC(Nc1nc(Nc2ccnc(-c3ccccc3)c2)nc(-c2cccc(C(F)(F)F)n2)n1)C(F)(F)F (stereo not drawn) [Compound 217] |
| 7.00 to 7.30 | > 7.30 | 7.00 to 7.30 | > 7.30 | > 7.30 | 6.00 to 7.00 | CC[C@H](Nc1nc(N[C@H](CC)C(F)(F)F)nc(-c2cccc(Cl)n2)n1)C(F)(F)F [Compound 196] |
| > 7.30 | 6.00 to 7.00 | 6.00 to 7.00 | > 7.30 | > 7.30 | > 7.30 | CC(F)(F)c1nc(-c2nc(NC3CC(F)(F)C3)nc(NC3CC(F)(F)C3)n2)cs1 [Compound 209] |
| 7.00 to 7.30 | 7.00 to 7.30 | 6.00 to 7.00 | > 7.30 | > 7.30 | 7.00 to 7.30 | FC1(F)CCC(Nc2nc(Nc3ccnc(-c4ccccc4)c3)nc(-c3cccc(C(F)(F)F)n3)n2)CC1 [Compound 220] |
| > 7.30 | 6.00 to 7.00 | 7.00 to 7.30 | > 7.30 | > 7.30 | > 7.30 | FC(F)c1csc(-c2nc(NC3CCC(F)(F)CC3)nc(NC3CCC(F)(F)CC3)n2)n1 [Compound 205] |
| > 7.30 | 6.00 to 7.00 | 6.00 to 7.00 | > 7.30 | > 7.30 | > 7.30 | FC1(F)CC(CNc2nc(NCC3CC(F)(F)C3)nc(-c3cccc(C(F)(F)F)n3)n2)C1 [Compound 216] |
| > 7.30 | 7.00 to 7.30 | 6.00 to 7.00 | > 7.30 | > 7.30 | > 7.30 | N#Cc1cc(Nc2nc(NC3CC(F)(F)C3)nc(-n3ccc(C(F)(F)F)n3)n2)ccn1 [Compound 210] |
